Experimental data as given in ChEMBL document CHEMBL1201862, “PubChem BioAssay data set” (2004).
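Interpolation was linear, between the two tested concentrations surrounding the appropriate level; five concentrations were tested over 48 hours in 96-well plates. Abbreviation: GI50, concentration required for 50% inhibition of growth.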 Activity calls are given as the source filed them. Cut-off read from the data, not from the text of the source: active = GI50 up to about 1.1 µM and inactive = higher.

Tests used:
Experiment in all cases: NCI tumour cell line growth inhibition, 48 h
HOP-62 = test system: HOP-62
SK-MEL-2 = test system: SK-MEL-2
OVCAR-4 = test system: OVCAR-4
RPMI-8226 = test system: RPMI-8226
RXF 393 = test system: RXF 393
NCI-H460 = test system: NCI-H460
HL-60 = test system: HL-60
UO-31 = test system: UO-31
U-251 = test system: U-251
MDA-MB-435 = test system: MDA-MB-435
NCI/ADR-RES = test system: NCI/ADR-RES
TK-10 = test system: TK-10
SW-620 = test system: SW-620
SN12C = test system: SN12C
CCRF-CEM = test system: CCRF-CEM
LOX IMVI = test system: LOX IMVI
SF-539 = test system: SF-539
BT-549 = test system: BT-549
T47D = test system: T47D
OVCAR-3 = test system: OVCAR-3

Question: Which GI50 (HOP-62) does the source give for `CC1OC2/C=C\CC(O)C(C)(C)C3CCC(C)C4(O3)O[B-]35OC(C(=O)OC1C2)C1(OC(CCC1C)C(C)(C)C(O)C/C=C\C1CC(OC(=O)C4O3)C(C)O1)O5` (stereo not given) here?
Answer: 2.08 µM (inactive)

Question: What about the GI50 (SK-MEL-2) of the same compound?
Answer: 1.54 µM (inactive)

Question: What about the GI50 (OVCAR-4) of the same compound?
Answer: 7.76 µM (inactive)

Question: And the GI50 (RPMI-8226)?
Answer: 1.63 µM (inactive)

Question: And the GI50 (RXF 393)?
Answer: 1.87 µM (inactive)

Question: What about the GI50 (NCI-H460) of the same compound?
Answer: 1.6 µM (inactive)

Question: And the GI50 (HL-60)?
Answer: 1.06 µM (active)

Question: What about the GI50 (UO-31) of the same compound?
Answer: 17.7 µM (inactive)

Question: And the GI50 (U-251)?
Answer: 1.33 µM (inactive)

Question: And the GI50 (MDA-MB-435)?
Answer: 2.54 µM (inactive)

Question: And the GI50 (NCI/ADR-RES)?
Answer: 3.2 µM (inactive)

Question: And the GI50 (TK-10)?
Answer: 2.97 µM (inactive)

Question: What about the GI50 (SW-620) of the same compound?
Answer: 2.94 µM (inactive)

Question: What about the GI50 (SN12C) of the same compound?
Answer: 2.69 µM (inactive)

Question: What about the GI50 (CCRF-CEM) of the same compound?
Answer: 0.718 µM (active)

Question: What about the GI50 (LOX IMVI) of the same compound?
Answer: 1.97 µM (inactive)

Question: What about the GI50 (SF-539) of the same compound?
Answer: 2.42 µM (inactive)

Question: What about the GI50 (BT-549) of the same compound?
Answer: 2.54 µM (inactive)

Question: What about the GI50 (T47D) of the same compound?
Answer: 2.81 µM (inactive)

Question: And the GI50 (OVCAR-3)?
Answer: 1.89 µM (inactive)

Question: What does the source list for `COC(=O)c1ccccc1CC1Cc2cc3c(cc2C1=O)CCC3` (stereo not given)?
Answer: GI50 (HOP-62): 17.1 µM (inactive); GI50 (SK-MEL-2): 7.87 µM (inactive); GI50 (OVCAR-4): 19.2 µM (inactive); GI50 (RPMI-8226): 10.5 µM (inactive); GI50 (RXF 393): 2.56 µM (inactive); GI50 (NCI-H460): 29.7 µM (inactive); GI50 (HL-60): 3.83 µM (inactive); GI50 (UO-31): 22.3 µM (inactive); GI50 (U-251): 10.4 µM (inactive); GI50 (MDA-MB-435): 1.95 µM (inactive); GI50 (NCI/ADR-RES): 3.05 µM (inactive); GI50 (TK-10): 16.5 µM (inactive); GI50 (SW-620): 3.82 µM (inactive); GI50 (SN12C): 11.5 µM (inactive); GI50 (CCRF-CEM): 6.53 µM (inactive); GI50 (LOX IMVI): 7.31 µM (inactive); GI50 (SF-539): 16.8 µM (inactive); GI50 (BT-549): 10.8 µM (inactive); GI50 (T47D): 16 µM (inactive); GI50 (OVCAR-3): 13.1 µM (inactive)

Question: Which results are given for `CCCCCCCCCCCCCCCC[N+](C)(C)Cc1ccc(F)cc1`?
Answer: GI50 (HOP-62): 1.5 µM (inactive); GI50 (SK-MEL-2): 1.62 µM (inactive); GI50 (OVCAR-4): 1.55 µM (inactive); GI50 (RPMI-8226): 1.06 µM (active); GI50 (RXF 393): 1.11 µM (active); GI50 (NCI-H460): 1.44 µM (inactive); GI50 (HL-60): 0.184 µM (active); GI50 (UO-31): 6.84 µM (inactive); GI50 (U-251): 1.43 µM (inactive); GI50 (MDA-MB-435): 1.84 µM (inactive); GI50 (NCI/ADR-RES): 18.1 µM (inactive); GI50 (TK-10): 1.48 µM (inactive); GI50 (SW-620): 1.7 µM (inactive); GI50 (SN12C): 1.62 µM (inactive); GI50 (CCRF-CEM): 0.771 µM (active); GI50 (LOX IMVI): 1.47 µM (inactive); GI50 (SF-539): 1.29 µM (inactive); GI50 (BT-549): 2.37 µM (inactive); GI50 (T47D): 3.33 µM (inactive); GI50 (OVCAR-3): 1.94 µM (inactive)

Question: `CSc1cc(N)ccc1/N=N/c1ccc(S(N)(=O)=O)cc1` was tested. Which GI50 (HOP-62) did it give?
Answer: 29.4 µM (inactive)

Question: What about the GI50 (SK-MEL-2) of the same compound?
Answer: 24.2 µM (inactive)

Question: And the GI50 (OVCAR-4)?
Answer: 27.5 µM (inactive)

Question: And the GI50 (RPMI-8226)?
Answer: 16.4 µM (inactive)

Question: And the GI50 (RXF 393)?
Answer: 30.5 µM (inactive)

Question: What about the GI50 (NCI-H460) of the same compound?
Answer: 24.2 µM (inactive)

Question: What about the GI50 (HL-60) of the same compound?
Answer: 25.1 µM (inactive)

Question: And the GI50 (UO-31)?
Answer: 16.5 µM (inactive)

Question: What about the GI50 (U-251) of the same compound?
Answer: 26.9 µM (inactive)

Question: And the GI50 (MDA-MB-435)?
Answer: 27.4 µM (inactive)

Question: What about the GI50 (NCI/ADR-RES) of the same compound?
Answer: 29.6 µM (inactive)

Question: What about the GI50 (TK-10) of the same compound?
Answer: 29.4 µM (inactive)

Question: And the GI50 (SW-620)?
Answer: 41.7 µM (inactive)

Question: And the GI50 (SN12C)?
Answer: 27.5 µM (inactive)

Question: And the GI50 (CCRF-CEM)?
Answer: 27.3 µM (inactive)

Question: What about the GI50 (LOX IMVI) of the same compound?
Answer: 29.6 µM (inactive)

Question: And the GI50 (SF-539)?
Answer: 31.5 µM (inactive)

Question: What about the GI50 (BT-549) of the same compound?
Answer: 6.4 µM (inactive)

Question: What about the GI50 (T47D) of the same compound?
Answer: 18.8 µM (inactive)

Question: What about the GI50 (OVCAR-3) of the same compound?
Answer: 25.1 µM (inactive)

Question: For `N=c1ccn2c(n1)OC1C(OP(=O)(O)O)C(CO)OC12` (stereo not given), which GI50 (HOP-62) is on record?
Answer: 1.21 µM (inactive)

Question: And the GI50 (SK-MEL-2)?
Answer: > 100 µM (inactive)

Question: What about the GI50 (OVCAR-4) of the same compound?
Answer: > 100 µM (inactive)

Question: What about the GI50 (RPMI-8226) of the same compound?
Answer: > 100 µM (inactive)

Question: What about the GI50 (RXF 393) of the same compound?
Answer: > 100 µM (inactive)

Question: And the GI50 (NCI-H460)?
Answer: 0.53 µM (active)

Question: And the GI50 (HL-60)?
Answer: 0.597 µM (active)

Question: What about the GI50 (UO-31) of the same compound?
Answer: 7.64 µM (inactive)

Question: And the GI50 (U-251)?
Answer: > 57.8 µM (inactive)

Question: What about the GI50 (MDA-MB-435) of the same compound?
Answer: > 100 µM (inactive)

Question: And the GI50 (NCI/ADR-RES)?
Answer: 22.5 µM (inactive)

Question: And the GI50 (TK-10)?
Answer: > 100 µM (inactive)

Question: What about the GI50 (SW-620) of the same compound?
Answer: > 47.2 µM (inactive)

Question: What about the GI50 (SN12C) of the same compound?
Answer: 20.2 µM (inactive)

Question: What about the GI50 (CCRF-CEM) of the same compound?
Answer: 0.0467 µM (active)

Question: And the GI50 (LOX IMVI)?
Answer: 4.52 µM (inactive)

Question: And the GI50 (SF-539)?
Answer: 41.1 µM (inactive)

Question: And the GI50 (BT-549)?
Answer: > 100 µM (inactive)

Question: And the GI50 (T47D)?
Answer: > 100 µM (inactive)

Question: What about the GI50 (OVCAR-3) of the same compound?
Answer: > 71.3 µM (inactive)

Question: With `CC(=O)O[C@@H]1C(C2CCCCC2)C=[N+]([O-])O[C@@H]1OC1CCCC1(c1ccccc1)c1ccccc1` (stereo not given in full) as the compound, how does the GI50 (HOP-62) read?
Answer: 14.9 µM (inactive)

Question: And the GI50 (SK-MEL-2)?
Answer: 9.91 µM (inactive)

Question: What about the GI50 (OVCAR-4) of the same compound?
Answer: 7.98 µM (inactive)

Question: And the GI50 (RPMI-8226)?
Answer: 2.58 µM (inactive)

Question: And the GI50 (RXF 393)?
Answer: 2.58 µM (inactive)

Question: What about the GI50 (NCI-H460) of the same compound?
Answer: 13.3 µM (inactive)

Question: What about the GI50 (HL-60) of the same compound?
Answer: 1.6 µM (inactive)

Question: And the GI50 (UO-31)?
Answer: 8.09 µM (inactive)

Question: And the GI50 (U-251)?
Answer: 12.5 µM (inactive)

Question: And the GI50 (MDA-MB-435)?
Answer: 3.06 µM (inactive)

Question: What about the GI50 (NCI/ADR-RES) of the same compound?
Answer: 10.2 µM (inactive)

Question: And the GI50 (TK-10)?
Answer: 14.5 µM (inactive)

Question: What about the GI50 (SW-620) of the same compound?
Answer: 2.04 µM (inactive)

Question: And the GI50 (SN12C)?
Answer: 9.23 µM (inactive)

Question: And the GI50 (CCRF-CEM)?
Answer: 2.63 µM (inactive)

Question: And the GI50 (LOX IMVI)?
Answer: 1.94 µM (inactive)

Question: And the GI50 (SF-539)?
Answer: 3.94 µM (inactive)

Question: What about the GI50 (BT-549) of the same compound?
Answer: 12.4 µM (inactive)

Question: And the GI50 (T47D)?
Answer: 2.45 µM (inactive)

Question: What about the GI50 (OVCAR-3) of the same compound?
Answer: 2.7 µM (inactive)

Question: `O=C1C=CC(=O)c2c(O)c(N(CCCl)CCCl)c(Cl)c(O)c21` was tested. Which GI50 (HOP-62) did it give?
Answer: > 9.48 µM (inactive)

Question: And the GI50 (SK-MEL-2)?
Answer: 4.78 µM (inactive)

Question: What about the GI50 (OVCAR-4) of the same compound?
Answer: 4.49 µM (inactive)

Question: What about the GI50 (RPMI-8226) of the same compound?
Answer: > 8.39 µM (inactive)

Question: What about the GI50 (RXF 393) of the same compound?
Answer: > 5.2 µM (inactive)

Question: What about the GI50 (NCI-H460) of the same compound?
Answer: 5.02 µM (inactive)

Question: And the GI50 (HL-60)?
Answer: > 6.05 µM (inactive)

Question: What about the GI50 (UO-31) of the same compound?
Answer: > 5.75 µM (inactive)

Question: And the GI50 (U-251)?
Answer: 5.73 µM (inactive)

Question: What about the GI50 (MDA-MB-435) of the same compound?
Answer: 4.31 µM (inactive)

Question: What about the GI50 (NCI/ADR-RES) of the same compound?
Answer: 6.89 µM (inactive)

Question: And the GI50 (TK-10)?
Answer: 3.35 µM (inactive)

Question: What about the GI50 (SW-620) of the same compound?
Answer: 3.75 µM (inactive)

Question: And the GI50 (SN12C)?
Answer: > 6.68 µM (inactive)

Question: What about the GI50 (CCRF-CEM) of the same compound?
Answer: 1.25 µM (inactive)

Question: And the GI50 (LOX IMVI)?
Answer: 4.49 µM (inactive)

Question: What about the GI50 (SF-539) of the same compound?
Answer: 5.24 µM (inactive)

Question: And the GI50 (BT-549)?
Answer: 4.15 µM (inactive)

Question: What about the GI50 (T47D) of the same compound?
Answer: 4.71 µM (inactive)

Question: And the GI50 (OVCAR-3)?
Answer: 4.74 µM (inactive)
